Results on 23 compounds are retold here after ChEMBL document CHEMBL2375214, “Evaluation of anti-HCV activity and SAR study of (+)-lycoricidine through targeting of host heat-stress cognate 70 (Hsc70)” (Bioorg Med Chem Lett, 2013).

Molecules are shown by their SMILES.

Series [1] deals with Hepatitis C virus. Description: Selectivity index, ratio of CC50 for human Huh7.5 cells to EC50 for Hepatitis C virus. In kind it is toxicity, cell-based, Huh-7. To be noted: read-out: Ratio CC50/EC50.
For series [2], the system named is Hepatitis C virus. Description: Antiviral activity against Hepatitis C virus infected in human Huh7.5 cells after 96 hrs by fluorescence microscopic analysis. In kind it is functional, organism-based, Hepacivirus hominis. To be noted: huh-7.
Series [3] in a line: Cytotoxicity against human Huh7.5 cells treated after 96 hrs by MTT assay. In kind it is cell-based, Huh-7. On the technique in general: Tetrazolium dyes change colour on reduction, which living cells bring about.
The nature of series [4]: Down regulation of Hsc70 protein expression in Hepatitis C virus-infected human Huh7.5 cells […] at 100 ug/mL after 24 hrs by Western blotting analysis relative to actin expression. In kind it is functional, cell-based. To be noted: Huh-7. Background: In western blotting, separated proteins are transferred to a membrane and probed.
Series [5] in a line: Down regulation of Hsc70 protein expression in Hepatitis C virus-infected human Huh7.5 cells […] at 10 ug/mL after 24 hrs by Western blotting analysis relative to actin expression. The following applies: Huh-7. It counts as functional, cell-based.
Series [6] can be described thus: Down regulation of Hsc70 protein expression in Hepatitis C virus-infected human Huh7.5 cells […] at 1 ug/mL after 24 hrs by Western blotting analysis relative to actin expression. It counts as functional, cell-based. The following applies: Huh-7.
A short description of series [7]: Down regulation of Hsc70 protein expression in Hepatitis C virus-infected human Huh7.5 cells at 100 ug/mL after 24 hrs by Western blotting analysis relative to actin expression. To be noted: Huh-7. In kind it is functional, cell-based.
Series [8] is described as follows: Down regulation of Hsc70 protein expression in Hepatitis C virus-infected human Huh7.5 cells at 10 ug/mL after 24 hrs by Western blotting analysis relative to actin expression. It counts as functional, cell-based. To be noted: Huh-7.
Series [9] is described as follows: Down regulation of Hsc70 protein expression in Hepatitis C virus-infected human Huh7.5 cells at 1 ug/mL after 24 hrs by Western blotting analysis relative to actin expression. It counts as functional, cell-based. The following applies: Huh-7.
Series [10] in a line: Down regulation of Hsc70 protein expression in Hepatitis C virus-infected human Huh7.5 cells […] at 0.1 ug/mL after 24 hrs by Western blotting analysis relative to actin expression. It counts as functional, cell-based. The following applies: Huh-7.
Series [11] in a line: Down regulation of Hsc70 protein expression in Hepatitis C virus-infected human Huh7.5 cells at 0.1 ug/mL after 24 hrs by Western blotting analysis relative to actin expression. It counts as functional, cell-based. The following applies: Huh-7.
The nature of series [12]: Down regulation of Hsc70 protein expression in Hepatitis C virus-infected human Huh7.5 cells […] at 0.1 ug/mL after 24 hrs by Western blotting analysis relative to control. Also on record: scale not given: the % may be the effect or the level left. The following applies: Huh-7. It counts as functional, cell-based.
A short description of series [13]: Down regulation of Hsc70 protein expression in Hepatitis C virus-infected human Huh7.5 cells at 0.1 ug/mL after 24 hrs by Western blotting analysis relative to control. It counts as functional, cell-based. The following applies: Huh-7.
The test system of series [14] is Huh-7. Description: Inhibition of Hsc70 mRNA expression in Hepatitis C virus-infected human Huh7.5 cells at 100 ug/mL after 24 hrs by RT-PCR analysis relative to control. In kind it is functional. To be noted: Huh-7, 24 h.
The test system of series [15] is Huh-7. Description: Inhibition of Hsc70 mRNA expression in Hepatitis C virus-infected human Huh7.5 cells at 10 ug/mL after 24 hrs by RT-PCR analysis relative to control. In kind it is functional. The following applies: Huh-7, 24 h.

Take `C=CCO[C@@H]1[C@H](OCC=C)[C@@H](OCC=C)C[C@@H]2c3cc4c(cc3C(=O)N(CC=C)[C@@H]12)OCO4`: the selectivity ratio in series [1] is 3.17. The EC50 (in general, the concentration needed to bring the measured effect to its halfway point) in series [2] was 12 µM. In [3], it took 38 µM to reach half-maximal cytotoxicity (CC50 at 96 h).
For `O=C1N[C@H]2[C@H](O)[C@H](O)[C@@H](O)C[C@@H]2c2cc3c(cc21)OCO3`, in that order: 33.8, 0.68 µM and 23 µM.
The like results for `CCO[C@H]1C[C@@H]2c3cc4c(cc3C(=O)N(CC)[C@H]2[C@@H]2OC(C)(C)O[C@@H]21)OCO4` were, in that order, 3.06, 85 µM and 260 µM.
For `CCO[C@H]1C=C2c3cc4c(cc3C(=O)N(CC)[C@H]2[C@@H]2OC(C)(C)O[C@@H]21)OCO4`, in that order: 12, 15 µM and 180 µM.
As to `CC1(C)O[C@@H]2[C@H](O1)[C@@H](OCc1ccccc1)C=C1c3cc4c(cc3C(=O)N(Cc3ccccc3)[C@H]12)OCO4`, the selectivity ratio in series [1] was determined as 3.08. The EC50 in series [2] turned out to be 65 µM. Further, the 50% cytotoxic concentration (CC50) (commonly the concentration giving 50% cytotoxicity) at 96 h in [3] was 200 µM.
For `CC1(C)O[C@@H]2[C@H](O1)[C@@H](O[Si](C)(C)C(C)(C)C)C=C1c3cc4c(cc3C(=O)N[C@H]12)OCO4`, in that order: 2.13, 75 µM and 160 µM.
For `CC(=O)O[C@@H]1[C@H](OC(C)=O)[C@@H](OC(C)=O)C=C2c3cc4c(cc3C(=O)N[C@H]21)OCO4` [LYCORICIDINE TRIACETATE], in that order: < 33.8, > 0.98 µM and 33 µM.
The like results for `C=CCO[C@H]1C=C2c3cc4c(cc3C(=O)N(CC=C)[C@H]2[C@@H]2OC(C)(C)O[C@@H]21)OCO4` were, in that order, 6.25, 40 µM and 250 µM.
As for `CCO[C@@H]1[C@H](OCC)[C@@H](OCC)C[C@@H]2c3cc4c(cc3C(=O)N(CC)[C@@H]12)OCO4`, in [1], the selectivity ratio was > 6.98. The 50% effective concentration (EC50) in [2] came out at 43 µM. Also, in series [3], the CC50 at 96 h was > 300 µM.
Consider `O[C@H]1[C@@H]2c3cc4c(cc3CN3CC[C@@H](C[C@H]1O)[C@H]23)OCO4`, for which the fold change (FC) is 0.1 in series [4]; 1.22 in series [5]; 1.16 in series [6]; 0.67 in [7]; 0.6 in series [8]; 0.68 in [9]. The values for the fold change (FC) in series [10] and in series [11] were 1.2 and 1.01, respectively.
Turning to `O=C1N[C@@H]2C(=C[C@H](O)[C@@H](O)[C@H]2O)c2cc3c(cc21)OCO3`, the Activity came out at 6% in [12] and 28% in [13]. Further, the selectivity ratio in [1] was 12.7. For the same compound, the concentration for a half-maximal effect (EC50) in series [2] was 0.55 µM. Further, in [14], 100 µg/mL produced 83.1% inhibition. The inhibition (in general, the percentage by which the read-out fell short of the control) at 10 µg/mL in series [15] amounted to 91.4%. The fold change (FC) in series [10] came to 0.06; in [11], 0.72. This compound also gave a CC50 at 96 h in [3] of 7.2 µM.
With `CCO[C@@H]1[C@H](OCC)[C@@H](OCC)C=C2c3cc4c(cc3C(=O)N(CC)[C@H]21)OCO4`, the selectivity ratio in series [1] was < 3.01. For the same compound, the EC50 in [2] was > 83 µM. This compound also gave a CC50 at 96 h in series [3] of 252 µM.
On to `CC1(C)O[C@H]2[C@@H]3NC(=O)c4cc5c(cc4[C@H]3C[C@H](O)[C@H]2O1)OCO5`, for which the selectivity ratio in series [1] is < 25.5. Besides, the half-maximal effective concentration (EC50) in series [2] is > 11 µM. Further, in series [3], the CC50 at 96 h stood at 280 µM.
For `CC(=O)O[C@H]1C[C@@H]2c3cc4c(cc3C(=O)N[C@H]2[C@@H]2OC(C)(C)O[C@@H]21)OCO4`, in that order: 3.03, 89 µM and 270 µM.
For `CC(=O)O[C@H]1C=C2c3cc4c(cc3C(=O)N[C@H]2[C@@H]2OC(C)(C)O[C@@H]21)OCO4`, in that order: > 4.76, 63 µM and > 300 µM.
The like results for `CO[C@@H]1[C@H](OC)[C@@H](OC)C=C2c3cc4c(cc3C(=O)N(C)[C@H]21)OCO4` were, in that order, 8.2, 22 µM and 180 µM.
`C=CCO[C@@H]1[C@H](OCC=C)[C@@H](OCC=C)C=C2c3cc4c(cc3C(=O)N(CC=C)[C@H]21)OCO4`: the selectivity ratio in series [1] came to 1.62. This compound had an EC50 in series [2] of 74 µM. This compound gave a CC50 at 96 h in [3] of 120 µM.
For the compound `O[C@@H]1[C@@H](O)C=C2CCN3Cc4cc5c(cc4[C@H]1C23)OCO5` (stereo partly specified), the fold change (FC) in series [6] was 0.2; in series [9], 0.79; in [10], 1.86; in series [11], 0.78.
With `CO[C@H]1C=C2c3cc4c(cc3C(=O)N(C)[C@H]2[C@@H]2OC(C)(C)O[C@@H]21)OCO4`, the selectivity ratio in [1] was found to be 3.01. Further, in series [2], the EC50 was 93 µM. Besides, in series [3], half-maximal cytotoxicity (CC50 at 96 h) was put at 280 µM.
For `CO[C@H]1C[C@@H]2c3cc4c(cc3C(=O)N(C)[C@H]2[C@@H]2OC(C)(C)O[C@@H]21)OCO4`, in that order: 2.17, 92 µM and 250 µM.
The like results for `CO[C@@H]1[C@H](OC)[C@@H](OC)C[C@@H]2c3cc4c(cc3C(=O)N(C)[C@@H]12)OCO4` were, in that order, > 5.56, 54 µM and > 300 µM.
For `CC1(C)O[C@@H]2[C@H](O1)[C@@H](O)C=C1c3cc4c(cc3C(=O)N[C@H]12)OCO4`, in that order: 9.09, 11 µM and 170 µM.
For `O[C@@H]1[C@H](O)[C@@H](O)C=C2c3cc4c(cc3CN[C@H]21)OCO4`, in series [1], the selectivity ratio is > 10.9. The concentration giving a half-maximal response (EC50) in series [2] turned out to be 33 µM. Besides, the CC50 at 96 h in series [3] was > 360 µM.
